{"source": "patent US20240361338A1", "about": "“DIAGNOSIS AND TREATMENT OF ECTOPIC ENDOMETRIOSIS” (FERRING B.V., priority 2021, published 2024)", "key": {"ectopic E-MSCs": {"tested_on": "ectopic E-MSCs", "test": "Matrigel transwell invasion assay, ectopic E-MSCs", "type": "cell-based, human", "experimental": "FIG. 4: Quinagolide effect on EMSCs invasion. A and B: Representative micrographs (A) and quantification (B) of quinagolide effect (100 nM) on eutopic and ectopic (both ovarian and peritoneal) EMSCs invasion (original magnification: ×100). C: Concentration response effect of quinagolide treated ectopic EMSCs invasion. D and E: Quantification (D) and representative micrographs (E) (original magnification: ×100) of invasion assays performed on ectopic EMSCs (both ovarian and peritoneal), treated with 100 nM quinagolide (Q100 nM), 5 μM spiperone(S) or a combination of quinagolide and spiperone (S+Q100 nM). All invasion data are represented as mean±SD of at least three independent experiments, performed on different EMSC lines, and normalized to untreated cells (CTL). One-way ANova was performed: *=p<0.05 and **=p<0.001 vs CTL. Quinagolide powder (provided by Ferring Pharmaceuticals) was stored at 4° C. and resuspended in dimethylsulphoxide (DMSO) to a stock solution of 1 mM immediately before use. Spiperone powder (Sigma-Aldrich) was resuspended in water to a stock concentration of 1 mM and stored at −20° C. Cabergoline powder (Sigma-Aldrich) was dissolved in DMSO to a stock concentration of 25 mM and stored at −20° C. […] Quinagolide, cabergoline, sorafenib and cabozantinib and were administered for 24 hours during co-culture experiments, while spiperone was added to culture medium 1 h before quinagolide treatment. […] E-MSCs were seeded in triplicate in Matrigel-precoated (100 μg Matrigel/transwell) 8-um pore transwells at a concentration of 50,000 cells per well in 200 μl of RPMI 2% FCS with/without quinagolide at the indicated concentration. To test the D2 antagonist effect, E-MSCs were pre-treated with spiperone (5 μM) for 1 h at 37° C. before cell detachment. After 48 hours, invaded E-MSCs on the bottom side of the transwell were fixed with methanol and stained with crystal violet. At least five pictures per transwell were acquired (original magnification: 100×), and the percentage of transwell area covered by invaded EMSCs was quantitatively measured by ImageJ software."}, "AKT": {"tested_on": "AKT", "test": "Western blot of P-AKT in E-MSC-HUVEC cocultures", "type": "cell-based, human", "conditions": "100 nM quinagolide 24 h", "experimental": "FIG. 6: Quinagolide effect on AKT activation. A: Representative western blot analysis and quantification of AKT levels in eutopic and ectopic EMSCs treated for 48 h with 100 nM quinagolide (Q), compared to untreated cells (CTL). B: Representative western blot analysis and quantification of P-AKT levels, normalized to AKT expression, in eutopic and ectopic EMSCs treated for 48 h with 100 nM quinagolide (Q), respect to untreated cells (CTL). C: Representative western blot analysis and quantification of P-AKT levels in HUVECs, ectopic […] basal), and in […] co-culture with HUVECs, treated or not for 24 h with 100 nM quinagolide (Q100 nM). Data are represented as mean±SD of at least two independent experiments, performed on different EMSC lines, and normalized to Vinculin and to untreated cells (CTL). One-way ANOVA was performed: *=p<0.05 and **=p<0.001 vs CTL. Cell pellets were lysed at 4° C. for 15 minutes in RIPA buffer supplemented with protease and phosphatase inhibitors cocktail and PMSF (Sigma-Aldrich). Proteins were quantified using Bradford solution following the manufacturer procedures (Bio-Rad Inc., Berkely, CA, USA) and aliquots of cell lysates containing 50 μg of proteins were run on 4-12% Mini-Protean TGX Stain-Free Gels (Bio-Rad) under reducing conditions and transferred onto PVDF membrane filters using the iBLOT2 system (Life Technologies). […]"}}}
{"molecule": "CCCN1C[C@@H](NS(=O)(=O)N(CC)CC)C[C@@H]2Cc3c(O)cccc3C[C@H]21", "note": "[quinagolide, N,N-diethyl-N′-[(3S,4aS,10aR)-6-hydroxy-1-propyl-1,2,3,4,4a,5,10,10a-octahydrobenzo[g]quinolin-3-yl]sulfamide]", "values": [{"measurement": "invasion of ectopic E-MSC lines", "setting": "ectopic E-MSCs; 100 nM, 48 h, Matrigel, vs untreated", "value": "significantly reduced"}, {"measurement": "concentration response of invasion reduction", "setting": "ectopic E-MSCs; ectopic EMSCs, 48 h (FIG. 4C)", "value": "dose-dependent"}, {"measurement": "AKT phosphorylation", "setting": "AKT", "value": "reduced"}]}
